The target of this test is T1, MyD88 signaling complex (Homo sapiens, UniProt P51617+Q99836+Q9NWZ3).
T1 construct: abrogated IRAK1, 2 and 4 recruitment to the MyD88 signaling complex in human monocytes; endogenous in cells; host or cells: primary human monocytes, LPS-stimulated
Nature of the test: IRAK immunoprecipitations from LPS-stimulated human monocytes. To be noted: 15 μM, LPS 100 ng/ml. Type of test: cell-based. On the procedure: Cell were pre-treated with Pen or P7-Pen (15 μM) for 30 min before addition of LPS (100 ng/ml) for specified time periods. Precipitations were performed using sheep anti-IRAK4 (A), anti-IRAK1 (B) and anti-IRAK2 (C) polyclonal antibodies covalently bound to magnetic beads, followed by Western blot analysis of lysates and precipitated proteins.
Pre-treatment of monocytes with P7-Pen abrogated recruitment of all tested IRAKs (1,2 and 4) to MyD88 (FIG. 28). This could be achieved by the peptide disrupting the Mal-MyD88 interaction, Mal-IRAK interactions or MyD88-IRAK interactions. Since IL-1R-initiated signalling through the Myddosome complex is not inhibited by the P7 peptide (see above), it is most likely that P7 interferes with Mal-IRAK interactions or the Mal-MyD88 interaction, rather than MyD88-IRAK interactions (since Mal is not involved in IL-1R signaling).

The record followed here is patent publication US20230220047A1, “PEPTIDES FOR TREATMENT OF SEPSIS AND CANCER” (NORWEGIAN UNIVERSITY OF SCIENCE AND TECHNOLOGY (NTNU), priority 2020, published 2023).

T1 sequence (Q99836 whole entry): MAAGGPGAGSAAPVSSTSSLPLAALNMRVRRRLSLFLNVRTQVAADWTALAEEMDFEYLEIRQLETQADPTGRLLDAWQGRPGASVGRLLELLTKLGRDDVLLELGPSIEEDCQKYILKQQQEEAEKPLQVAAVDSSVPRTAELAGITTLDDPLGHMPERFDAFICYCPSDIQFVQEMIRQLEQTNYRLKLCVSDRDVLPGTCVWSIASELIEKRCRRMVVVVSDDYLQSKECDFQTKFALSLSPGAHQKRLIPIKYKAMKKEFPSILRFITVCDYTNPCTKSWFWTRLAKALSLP
T1 sequence (P51617 whole entry): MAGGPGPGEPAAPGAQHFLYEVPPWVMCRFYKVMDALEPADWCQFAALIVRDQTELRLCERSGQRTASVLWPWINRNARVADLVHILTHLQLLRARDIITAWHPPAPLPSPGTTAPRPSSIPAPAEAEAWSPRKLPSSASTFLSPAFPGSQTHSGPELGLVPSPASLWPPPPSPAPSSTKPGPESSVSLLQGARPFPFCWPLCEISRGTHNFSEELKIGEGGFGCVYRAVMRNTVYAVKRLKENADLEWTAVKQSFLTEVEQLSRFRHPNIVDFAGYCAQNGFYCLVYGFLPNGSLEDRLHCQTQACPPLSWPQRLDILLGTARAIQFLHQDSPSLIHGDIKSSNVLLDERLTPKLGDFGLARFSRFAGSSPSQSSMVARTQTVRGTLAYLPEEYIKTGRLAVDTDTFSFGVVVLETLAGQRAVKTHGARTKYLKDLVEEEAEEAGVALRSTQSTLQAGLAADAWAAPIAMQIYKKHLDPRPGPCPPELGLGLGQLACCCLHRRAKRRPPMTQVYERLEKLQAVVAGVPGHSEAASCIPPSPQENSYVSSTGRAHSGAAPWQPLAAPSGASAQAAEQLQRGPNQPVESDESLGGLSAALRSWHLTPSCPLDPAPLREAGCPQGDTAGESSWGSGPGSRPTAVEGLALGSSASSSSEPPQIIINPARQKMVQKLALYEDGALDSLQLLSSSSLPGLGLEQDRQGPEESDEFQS
T1 sequence (Q9NWZ3 whole entry): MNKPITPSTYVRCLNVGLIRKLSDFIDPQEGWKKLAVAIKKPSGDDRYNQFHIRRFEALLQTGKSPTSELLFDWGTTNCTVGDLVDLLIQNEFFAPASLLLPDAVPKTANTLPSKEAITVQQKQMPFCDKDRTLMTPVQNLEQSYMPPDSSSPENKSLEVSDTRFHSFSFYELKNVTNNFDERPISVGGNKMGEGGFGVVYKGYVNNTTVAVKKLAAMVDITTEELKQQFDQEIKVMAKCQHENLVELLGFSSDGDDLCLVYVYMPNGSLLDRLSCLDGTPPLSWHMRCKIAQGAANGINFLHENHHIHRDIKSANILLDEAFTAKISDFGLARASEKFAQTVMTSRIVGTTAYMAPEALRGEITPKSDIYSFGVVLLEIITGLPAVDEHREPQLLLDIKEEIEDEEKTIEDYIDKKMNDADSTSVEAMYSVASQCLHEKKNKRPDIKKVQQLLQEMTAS

On to “Ac-ITVYASVTLTGRQIKIWFQNRRMKWKK-NH2 [Peptide P7-Pen]”, for which the “recruitment of IRAKs (1, 2 and 4) to MyD88” value is “abrogated”.
